System: β-catenin/TCF-responsive TOPFlash reporter
Experiment: TOPFlash reporter assay in H9 human ESCs
Format: cell-based
Conditions: 24 h
Experimental: (A) TOPFlash™ assay in H9 human ESCs subjected to the indicated treatments for 24 h. Data represent mean±s.d. of three biological replicates. (B) Representative phase contrast and alkaline phosphatase (AP) staining images of H9 human ESCs cultured in the indicated conditions for 3 passages. (C) Phase contrast images of H9 human ESCs cultured in CHIR/XAV or CHIR/IWR-1 for 11 passages. (D) Colony forming efficiency assay of H9 human ESCs cultured in FGF2 or CHIR/IWR-1 conditions. Data represent mean±s.d. of three biological replicates. Right panel: a representative image showing AP staining of colonies formed from H9 human ESCs cultured in either FGF2 or CHIR/IWR-1 condition. (E) Human ESCs cultured in CHIR/IWR-1 for 11 passages were immunostained with the indicated antibodies. (F) Embryoid bodies (EBs) were generated from H9 human ESCs cultured in CHIR/IWR-1 for 11 passages. The outgrowths of EBs were immunostained with the indicated antibodies. (G) H&E staining of teratomas generated from H9 ESCs cultured in CHIR/IWR-1 for 20 passages. (H) Western blot analysis of Axin1 and Axin2 expression in HES3 human ESCs treated with the indicated cytokines/inhibitors for 24 h. (I) Immunofluorescence images of H9 human ESCs (passage 5 in CHIR) overexpressing Flag-tagged Axin2. (J) Representative phase contrast and immunofluorescence images of HES2 human ESCs overexpressing ΔNβ-catenin-ERT2 at passage 5 in basal medium only. These cells were cultured in basal medium only for more than 10 passages and remained morphologically undifferentiated. (K) Phase contrast images of HES2 human ESCs overexpressing ΔNβ-catenin (left panel, passage 2 in basal medium/FGF2) or ΔNβ-catenin/A295W/I296W mutant (right panel, passage 5 in basal medium only). Scale bars, 50 μm (B, C, E-G, and I-K). (L) Model of mouse EpiSC and human ESC self-renewal mediated by β-catenin. In the absence of Wnt or GSK3 inhibitor, a β-catenin destruction complex, containing Axin1, GSK3, and APC is formed, leading to the degradation of β-catenin and differentiation (left). In the presence of Wnt or GSK3 inhibitor, β-catenin is stabilized and can initiate cellular responses related to both self-renewal and differentiation. Stabilized β-catenin induces differentiation when it translocates into the nucleus and binds TCFs to activate downstream targets (middle). Addition of XAV or IWR-1 stabilizes Axin2. […]
For quantifying relative Oct3/4 enhancer activities, pGL3-Oct4 DE and pGL3-Oct4 PE plasmids (gifts from Hans Schöler's lab) were co-transfected with the Renilla vector, using the Amaxa™ Transfection Kit (Lonza). […] For quantifying relative β-catenin/Tcf transcriptional activity, pGL2-SuperTOP™ plasmid (gift from Randall Moon) was co-transfected with the Renilla vector and assayed accordingly.

Structure (SMILES)	TOPFlash reporter activity	effect on TOPFlash activity induced by CHIR (added to CHIR)
Cc1c[nH]c(-c2cnc(NCCNc3ccc(C#N)cn3)nc2-c2ccc(Cl)cc2Cl)n1 [CHIR99021, 6-((2-((4-(2,4-Dichlorophenyl)-5-(4-methyl-1H-imidazol-2-yl)pyrimidin-2-yl)amino)ethyl)amino)nicotinonitrile]	strongly induced	
Oc1nc(-c2ccc(C(F)(F)F)cc2)nc2c1CSCC2 [XAV939, 3,5,7,8-Tetrahydro-2-[4-(trifluoromethyl)phenyl]-4H-thiopyrano[4,3-d]pyrimidin-4-one]		abolished this TOPFlash™ activity

Source: US20130273649A1, “Culture medium for pluripotent stem cells” (UNIVERSITY OF SOUTHERN CALIFORNIA, priority 2012, published 2013)
